# According to patent publication US20230301890A1, “COMPOSITIONS COMPRISING UROLITHINS” (Amazentis SA, priority 2022, published 2023):
# “Also recorded” adds a separate entry of the source.
# What was measured:
# [1] = tested on: wrinkles in the periorbital regions; test: Aging study 2: skin roughness (wrinkle) by DermaTOP; assay type: in vivo, human; settings: 1% UA creams, 2, 4 and 8 weeks, vs untreated side; listed as UA
# From the text: Anti-wrinkle efficacy will be assessed in the periorbital regions by investigating the three-dimensional structure of the wrinkles (DermaTOP). Skin hydration, skin elasticity effects and skin barrier function will be investigated by Corneometer, Cutometer and Tewameter measurements. On a subgroup of 12 subjects the ceramide content, including barrier lipids, in the Stratum Corneum will be performed by Raman Spectroscopy. […]
# DERMATOP blue (Eo Tech SA, Marcoussis France): Using phase-shifted and gray-coded measurements of human skin the three-dimensional surface structure of the investigated skin site is captured. […] The fringes that are projected under a defined triangulation angle onto the surface of the measured target with a sinus-like intensity of brightness are detected with a CCD camera. The three-dimensional skin surface profile is calculated from the position of the fringes in combination with the gray values of each pixel. From the captured three-dimensional structure, roughness parameters are calculated. […]
# UVB induced erythema = test: Clinical trial: UVB induced erythema, Chromameter a*; assay type: in vivo, human
# Protocol: A sunburn of 1.25 minimal erythemal dose (MED) was evoked on one set of test areas and 1.6 MED on the other set of test areas by irradiation with a sun simulator. On 3 test areas of each set products was applied 24 hours before irradiation, on 3 other test areas of each set products was applied immediately after irradiation. An irradiated but untreated test area served as a control. The effect of the test products was assessed by visual evaluation of erythema and instrumental color measurements by Chromameter before and after irradiation. The study was reviewed by an independent institutional review board (IRB) for ethical approval.
# The following efficacy assessment(s) will be performed: • Erythema (a*) by Chromameter (See FIG. 10) • Visual erythema evaluation (trained grader)
# The following instrumental measurement(s) will be performed: • CHROMAMETER CR 400 (Minolta, Device D-Langenhagen, Germany): Skin color can objectively be quantified by reflectance measurements with a tri-stimulus Chromameter. The measuring principle is based on the reflection of a Xenon flash that diffusely lightens the skin on an area of 8 mm in diameter. The vertically reflected light from the skin is then detected by high-sensitive silica photodiodes that provide a color analysis of the detected light. The Chromameter defines the measured color in the L*a*b* color coordinate system. The L*-value defines the brightness. The color is defined by the parameters a* (red-green axis; negative a*-value green, positive a*-value red) and b* (blue-yellow axis, negative b*-value blue, positive b*-value yellow). The a* value correlates well with visual assessments of skin redness (erythema), a* is a measure for erythema. […]
# [2] = tested on: Normal Adult Human Dermal Fibroblasts (NHDF-Ad); test: RNA sequencing gene expression in human primary dermal fibroblasts; assay type: cell-based; settings: for expression of MMP1: vs DMSO/vehicle
# Protocol: Study was conducted on Normal Adult Human Dermal Fibroblasts (NHDF-Ad) from two pooled donors (Catalog #: CC-2511) and Normal Adult Human Epidermal Keratinocytes (NHEK-Ad) from two pooled donors (Catalog #: 00192627, Lonza). The primary skin cells were amplified in flask and seeded in 12-well cell culture plates, filled with 1 mL of culture medium and then incubated at 37° C. with 5% CO2 and saturated hygrometry. The basic culture medium of human dermal fibroblasts was composed of FBM™ medium (Fibroblast Growth Basal Medium) supplemented with insulin 0.1%, hFGF-B 0.1%, GA-1000 0.1% and FBS 2%. The basic culture medium of human keratinocytes was composed of KBM™ Gold medium (Keratinocytes Basal Medium) supplemented with Hydrocortisone, Transferrin, Epinephrine, Gentamycin, Amphotericin B, BPE, hEGF and Insulin. Primary cells were treated at confluency (approximatively 250000 cells per well) with 0.1% DMSO (control), 2.5 μM and 10 μM of Urolithin A for 24 h, and harvested for RNA sequencing and expression profiling using the NGS platform.
# [3] = tested on: 3D reconstituted human epidermis (RHE); test: Gene expression in 3D reconstituted human epidermis after daily cream application; assay type: cell-based; settings: UA 1% moisturizing cream daily for 3 days, vs Vehicle
# From the text: Finally, we employed a model of 3D reconstituted human epidermis (RHE) applied daily with the UA 1% moisturizing cream for 3 days.
# [4] = tested on: reconstructed human epidermis (RHE); test: PGE2 release in reconstituted human epidermis under UV stimulation; assay type: cell-based; settings: UVB (+UVA) irradiated RHE
# Protocol: Ten-day-old reconstructed human epidermis (RHE) were placed in maintenance medium. The RHE were topically treated with or without moisturizing creams containing different concentration of Urolithin A active and incubated for 24 hours. The RHE were then rinsed in PBS and irradiated with UVB (+UVA)—850 mJ/cm^2 (+6 J/cm^2) using a SOL500 Sun Simulator equipped with an H2 filter (Dr. Hönle, AG). After irradiation, the treatments were renewed and the RHE were incubated for 24 hours. In parallel, non-irradiated conditions were performed and kept in the dark during the irradiation time. All experimental conditions were performed in n=3. PGE2 released in the culture supernatants was measured using a specific ELISA kit according to the supplier's instructions (Enzo Life Sciences, ref. ADI-900-001). Statistical analysis performed by One-Way Anova.
smiles,measurement,setting,value
O=c1oc2cc(O)ccc2c2ccc(O)cc12 [Urolithin A],"wrinkles (finer and rougher skin structures, Ra and Rz)",[1],significant anti-wrinkle effects; also recorded: significant impact on reducing wrinkles
same,"skin redness, erythema (a*) by Chromameter vs untreated area","UVB induced erythema; skin cream with 1% Urolithin A, 1.6 MED UVB, 24 hours after irradiation",reduction; also recorded: significantly less skin redness
same,reduction of skin redness/erythema,"UVB induced erythema; skin cream with 1% Urolithin A, 1.6 MED UVB, vs untreated area",approximately 14.3%
same,skin redness/erythema,UVB induced erythema; skin cream with Urolithin A at 0.5%,did not show any significant effect
same,collagen gene expression (COL1A1),"[2]; 2.5 μM or 10 μM, 24 hours",did not alter
same,expression of MMP1,"[2]; 2.5 μM or 10 μM, 24 hours",decreases
same,expression of MMP1,"[2]; 2.5 μM or 10 μM, 24 hours, listed as UA",suppressed the expression
same,expression of mitophagy genes PARKIN and PINK1 and autophagy genes MAP1LC3 and ULK1,"[2]; 2.5 μM or 10 μM, 24 hours, vs vehicle",dose-dependent increase
same,expression of mitophagy marker PINK1,"[2]; 2.5 uM or 10 uM, vs DMSO",increased
same,MMP1 and MMP3 gene expression,[3],No change
same,mitophagy and autophagy genes,[3],early activation
same,PGE2 secretion compared to irradiated skin treated with basic cream formulation without UA,[4]; all UA concentrations tested,significantly reduces PGE2 secretion
same,PGE2 secretion compared to irradiated non-treated skin,"[4]; cream with UA at 0.5%, 1% and 2%, supernatant ELISA",significantly reduces PGE2 secretion
